Reference: US8796267B2, “Oxazolidinone derivatives and methods of use” (Concert Pharmaceuticals, Inc., priority 2006, dated 2014)
In brackets after ≈: the same amount, converted by molar mass. Like-named read-outs stand apart in the source and are kept apart here.

Key:
S. pyogenes = assay: MIC assay (broth microdilution); format: cell-based; details: Streptococcus pyogenes; read-out: potency (MIC90)
Method: (§1) The three test compounds were stored at 4° C. until tested.
(§2) All test articles and drugs were dissolved in 50% dimethyl sulfoxide (DMSO) at one-half the volume needed to prepare the stock solution. Once the compound was in solution, the rest of the volume was added as sterile deionized water. The drug solutions were allowed to stand at room temperature for 1 hr to allow for auto-sterilization. Stock solutions were prepared at 40-fold the highest final test concentration in the test plate. The final concentration of DMSO in the assay was 2.5%.
(§3) The test organisms were obtained from clinical laboratories; quality control cultures were from the American Type Culture Collection. The test groups included Staphylococcus aureus, Staphylococcus epidermidis, Enterococcus faecalis, Enterococcus faecium, Streptococcus pneumoniae, Streptococcus pyogenes, Streptococcus agalactiae, Haemophilus influenzae, and Moraxella catarrhalis. Various phenotypic susceptibility/resistance groups were represented. Organisms received were streaked for isolation on agar medium appropriate to each organism. Colonies were picked by swab from the isolation plates and put into suspension in the appropriate media containing a cryoprotectant. The suspensions were aliquoted into cryogenic vials and maintained at −80° C. The isolates were thawed and passaged on the appropriate agar medium: Trypticase Soy agar (TSA) for most organisms, TSA plus 5% sheep blood for streptococci, and chocolate agar for Haemophilus. The plates were incubated overnight at 35° C. Haemophilus plates were incubated in the presence of CO2.
(§4) The medium employed for the MIC assay was Mueller Hinton II Broth (MHB II-Becton Dickinson, Sparks, Md. #212322, Lot #7143673) for most of the organisms. MHB II was supplemented with 2% lysed horse blood (Cleveland Scientific Lot #H93152) to accommodate the growth of Streptococcus pneumoniae. Haemophilus influenzae was tested in Haemophilus Test Medium. On the day of the test, the medium to be used in the daptomycin row of the daughters was supplemented with calcium ions to the final concentration of 50 μg/mL, taking into account the calcium that was already present in the medium.
(§5) The MIC assay method followed the procedure described by the Clinical and Laboratory Standards Institute and employed automated liquid handlers to conduct serial dilutions and liquid transfers. Automated liquid handlers included the Multidrop 384, Labsystems, Helsinki, Finland; Biomek 2000 and Multimek 96, Beckman Coulter, Fullerton Calif. The wells of standard 96-well microdilution plates (Falcon 3918) were filled with 150 μL of DMSO:deionized H2O (1:1) on the Multidrop 384. The drugs were dispensed into Column 1 of a deep well plate. The Biomek 2000 transferred 150 μL of each drug into one well in Column 1 of a “mother plate” and completed serial transfers through Column 11 in the mother plates. The wells of Column 12 contained no drug and were the organism growth control wells.
(§6) The daughter plates were loaded with 85 μL of the appropriate test media described above using the Multidrop 384. The daughter plates were prepared on the Multimek 96 instrument which transferred 5 μL of drug solution from each well of a mother plate to each corresponding well of each daughter plate in a single step.
(§7) Standardized inoculum of each organism was prepared per CLSI methods (Clinical and Laboratory Standards Institute. Methods for Dilution Antimicrobial Susceptibility Tests for Bacteria That Grow Aerobically; Approved Standard—Seventh Edition. Clinical and Laboratory Standards Institute document M7-A7 [ISBN 1-56238-587-9]. Clinical and Laboratory Standards Institute, 940 West Valley Road, Suite 1400, Wayne, Pa. 19087-1898 USA, 2006). Suspensions were prepared in MHB to equal a 0.5 McFarland standard. The suspensions were diluted 1:19 in broth appropriate to the organism. […]

community-acquired MRSA = assay: MIC assay (broth microdilution); format: cell-based; details: Staphylococcus aureus, clinical isolates
Method: as §1, §2, §3, §4, §5, §6, §7

[1] = system: methicillinsensitive S. aureus (MSSA); assay: MIC assay (broth microdilution); format: cell-based; details: Staphylococcus aureus, clinical isolates
Method: as §1, §2, §3, §4, §5, §6, §7

H. influenzae = assay: MIC assay (broth microdilution); format: cell-based, Haemophilus influenzae; details: in words
Method: as §1, §2, §3
The medium employed for the MIC assay was Mueller Hinton II Broth (MHB II-Becton Dickinson, Sparks, Md. #212322, Lot #7143673) for most of the organisms. MHB II was supplemented with 2% lysed horse blood (Cleveland Scientific Lot #H93152) to accommodate the growth of Streptococcus pneumoniae. Haemophilus influenzae was tested in Haemophilus Test Medium. […]

[2] = system: antibiotic resistant Grampositive pathogens including MRSA, VRE, and PRSP; assay: In vitro antibacterial activity, overall conclusion; format: cell-based; details: in words
Method: as §1, §2
as §3, with “The isolates were thawed and passaged on the appropriate agar medium: Trypticase Soy agar (TSA) for most organisms, TSA plus 5% sheep blood for streptococci, and chocolate agar for Haemophilus. The plates were incubated overnight at 35° C. Haemophilus plates were incubated in the presence of CO2.” left out

[3] = in words
Method: (§8) Four chimpanzees (two male and two female) were used in the study. One male and one female were used for the intravenous study and one male and one female were used for the oral dosing study. All animals were fasted overnight prior to dosing. For all studies animals were sedated with ketamine (approx. 10 mg/ml) or telazol (approx. 5 mg/ml) prior to dosing. […] Intravenous doses were administered (150 ml at 2 mg/ml combined drugs) by infusion over a 30 minute period. Oral doses were administered in a volume of 150 ml at 2 mg/ml combined drugs.
(§9) For the intravenous study, a 4.5 ml aliquot of blood was taken from each animal prior to the start of infusion, 15 minutes after the start of infusion, and immediately before the end of infusion. Additional samples were taken at 6, 15, 30, and 60 minutes and 1.5, 2, 4, 6, 8 and 24 hours following infusion. For the oral study, 4.5 ml aliquots of blood were taken from each animal prior to doing and then at 15, 20 and 60 minutes and 1.5, 2, 4, 6, 8 and 24 hours post dosing. All blood samples were collected into vacutainer tubes containing sodium heparin as an anticoagulant, sufficiently mixed and stored on wet ice. The samples were centrifuged within 1 hour of collection and the plasma collected and frozen at −70° C. until analysis. Urine was also collected from each animal over a 24 hour period following dosing.
Urine samples were similarly analyzed. […]

in vivo [4] = details: 150 mg; for AUC(0-t): both, chimpanzee, po; for half-life: iv
Method: The dosing solution is then filtered through a 0.22 μm filter prior to dosing.
as §8, §9
Chimp plasma sample (100 μL) was mixed with 300 μL internal standard solution prior to LC-MS/MS analysis. The internal standard was 250 ng/mL haloperidol in acetonitrile/water (90/10, v/v). After protein precipitation, 10 L supernatant was injected to a Zorbax SB-C8 (Rapid Resolution) column (2.1×30 mm, 3.5 μm). The initial mobile phase condition was 100% A (water with 0.1% formic acid) and 0% B (acetonitrile with 0.1% formic acid) with a flow rate at 0.5 mL/min. Mobile phase B was allowed to reach 90% within 2 minutes and held for 1 minute before ramping back 0% at 3.2 minutes. The overall run time was six minutes.

[5] = system: mtDNA-encoded protein synthesis in HepG2 cells; assay: Mitochondria Toxicity Study (Complex IV/Frataxin ratio, dipstick); details: for IC50: Homo sapiens, HepG2; for mitochondria toxicity: in words, versus linezolid
M. catarrhalis = assay: MIC assay (broth microdilution); format: cell-based; details: Moraxella catarrhalis; 30 isolates
Method: as §1, §2, §3, §4, §5, §6, §7

S. agalactiae = assay: MIC assay (broth microdilution); format: cell-based; details: Streptococcus agalactiae
Method: as §1, §2, §3, §4, §5, §6, §7

[6] = system: methicillin-resistant S. aureus (MRSA); assay: MIC assay (broth microdilution); format: cell-based; details: Staphylococcus aureus, clinical isolates
Method: as §1, §2, §3, §4, §5, §6, §7

[7] = system: methicillin-resistant S. epidermidis (MRSE); assay: MIC assay (broth microdilution); format: cell-based; details: Staphylococcus epidermidis, clinical isolates
Method: as §1, §2, §3, §4, §5, §6, §7

[8] = system: methicillin-sensitive S. epidermidis (MSSE); assay: MIC assay (broth microdilution); format: cell-based; details: Staphylococcus epidermidis; clinical isolates
Method: as §1, §2, §3, §4, §5, §6, §7

[9] = system: penicillin-intermediate S. pneumoniae; assay: MIC assay (broth microdilution); format: cell-based; details: Streptococcus pneumoniae; 27 isolates
Method: as §1, §2, §3, §4, §5, §6, §7

[10] = system: penicillin-resistant S. pneumoniae; assay: MIC assay (broth microdilution); format: cell-based; details: Streptococcus pneumoniae; 28 isolates
Method: as §1, §2, §3, §4, §5, §6, §7

[11] = system: penicillin-sensitive S. pneumoniae; assay: MIC assay (broth microdilution); format: cell-based; details: Streptococcus pneumoniae; 27 isolates
Method: as §1, §2, §3, §4, §5, §6, §7

[12] = system: vancomycin-resistant E. faecalis; assay: MIC assay (broth microdilution); format: cell-based; details: Enterococcus faecalis; clinical isolates
Method: as §1, §2, §3, §4, §5, §6, §7

[13] = system: vancomycin-resistant E. faecium; assay: MIC assay (broth microdilution); format: cell-based; details: Enterococcus faecium; clinical isolates
Method: as §1, §2, §3, §4, §5, §6, §7

[14] = system: vancomycin-sensitive E. faecalis; assay: MIC assay (broth microdilution); format: cell-based; details: Enterococcus faecalis; clinical isolates
Method: as §1, §2, §3, §4, §5, §6, §7

[15] = system: vancomycin-sensitive E. faecium; assay: MIC assay (broth microdilution); format: cell-based; details: Enterococcus faecium; printed only as 'a value'
Method: as §1, §2, §3, §4, §5, §6, §7

[16] = in words; cited from earlier work
[17] = humans; cited from earlier work
[18] = cited from earlier work
[19] = system: Vancomycin-Resistant Enterococcus faecium; Staphylococcus aureus; Streptococcus pneumoniae; Streptococcus pyogenes; Streptococcus agalactiae infections; details: clinical trials, in words; cited from earlier work
in vivo [20] = details: male, Sprague Dawley, rat, po, 5 mg/kg
Method: The combo dose was prepared by mixing both by 1:1 to yield a concentration of 5 mg/mL for each compound (pH ˜6) for intravenous and oral administration. The obtained solution was clear and colourless.
Male Sprague Dawley rats (body weight: 170 g to 220 g) were used in this study. Before the pharmacokinetic studies, animals were randomly assigned to the treatment groups.
The plasma samples and the dose formulation were stored at −20° C. until bioanalysis. Sample Analysis
Plasma samples (0.1 mL) were transferred to Eppendorff tube, then 20 μL methanol, and 300 μL IS solution (50 ng/mL) were added to it. After Vortexing for 1 min and centrifuging for 5 min at 15,000 rpm, 5 μL of supernatant was injected into LC/MS/MS.
The concentrations in plasma below the limit of quantitation (LOQ=5 ng/mL) were designated as zero. The pharmacokinetic data analysis was performed using noncompartmental analysis modules in WinNonlin2.0.

[21] = system: Cyp isoforms (1A2; 2C9; 2C19; 2D6; 2E1; 3A4); details: cited from earlier work

MIC90 (S. pyogenes) [µg/mL] | MIC90 (community-acquired MRSA) [µg/mL] | MIC90 [1] [µg/mL] | AUC(0-t) (in vivo [4]) [ng·h/mL] | half-life (in vivo [4]; female) [h] | half-life (in vivo [4]; male) [h] | MIC90 (M. catarrhalis) [µg/mL] | MIC90 (S. agalactiae) [µg/mL] | MIC90 [6] [µg/mL] | MIC90 [7] [µg/mL] | MIC90 [8] [µg/mL] | MIC90 [9] [µg/mL] | MIC90 [10] [µg/mL] | MIC90 [11] [µg/mL] | MIC90 [12] [µg/mL] | MIC90 [13] [µg/mL] | SMILES | activity (H. influenzae) | activity against antibiotic resistant Grampositive pathogens [2] | IC50 [5] [µM] | mitochondria toxicity [5] | other results
1 (≈ 2.88 µM) | 2 (≈ 5.76 µM) | 4 (≈ 11.5 µM) | 16400 | 6.4 | 6.2 |  |  |  |  |  |  |  |  |  |  | [2H]C([2H])(NC(C)=O)[C@H]1CN(c2ccc(N3C([2H])([2H])C([2H])([2H])OC([2H])([2H])C3([2H])[2H])c(F)c2)C(=O)O1 [Compound 100] | poor activity | good activity | 9.3 | comparable to that of linezolid | rate of metabolism versus linezolid (chimpanzee studies, in words): more slowly metabolized than linezolid; amount of deuterated M6 metabolite versus linezolid M6 metabolite ([3]; chimpanzee urine): essentially the same; amount excreted intact in the urine versus linezolid ([3]; chimpanzee, regardless of route or sex): approximately twice as much
1 (≈ 2.9 µM) | 2 (≈ 5.79 µM) | 4 (≈ 11.6 µM) |  |  |  | 4 (≈ 11.6 µM) | 2 (≈ 5.79 µM) | 4 (≈ 11.6 µM) | 2 (≈ 5.79 µM) | 2 (≈ 5.79 µM) | 2 (≈ 5.79 µM) | 2 (≈ 5.79 µM) | 2 (≈ 5.79 µM) | 2 (≈ 5.79 µM) | 2 (≈ 5.79 µM) | [2H]C1([2H])OC([2H])([2H])C([2H])([2H])N(c2ccc(N3C[C@H](CNC(C)=O)OC3=O)cc2F)C1([2H])[2H] [Compound 101] | poor activity | good activity | 10.5 | comparable to that of linezolid | MIC90 [14]: 2 µg/mL (≈ 5.79 µM); MIC90 [15]: 2 µg/mL (≈ 5.79 µM); % increase in AUC (both, chimpanzee, in vivo, iv): 31%; % increase in Half-life (both, chimpanzee, in vivo, iv): 30%; % increase in AUC (both, chimpanzee, in vivo, po): 41%; % increase in Cmax (both, chimpanzee, in vivo, po): 22%
 |  |  |  |  |  |  |  |  |  |  |  |  |  |  |  | [2H]C1([2H])CN(c2ccc(N3C[C@H](CNC(C)=O)OC3=O)cc2F)CC([2H])([2H])O1 [Compound 103, (S)—N-((3-(3-fluoro-4-(4-morpholino-2,2,6,6-d4)-phenyl)-2-oxooxazolidin-5-yl)methyl)acetamide] |  |  | 9.7 | comparable to that of linezolid | 
 |  |  |  |  |  |  |  |  |  |  |  |  |  |  |  | CC(=O)NCC1CN(c2ccc(N(CCO)CC(=O)O)c(F)c2)C(=O)O1 (stereo not shown) [Compound M4] |  |  |  |  | activity of metabolite [16]: inactive
 |  |  |  |  |  |  |  |  |  |  |  |  |  |  |  | CC(=O)NCC1CN(c2ccc(NCCOCC(=O)O)c(F)c2)C(=O)O1 (stereo not shown) [Compound M6] |  |  |  |  | activity of metabolite [16]: inactive
1 (≈ 2.96 µM) | 2 (≈ 5.93 µM) | 4 (≈ 11.9 µM) | 11300 | 4.5 | 4.5 | 8 (≈ 23.7 µM) | 2 (≈ 5.93 µM) | 4 (≈ 11.9 µM) | 2 (≈ 5.93 µM) | 2 (≈ 5.93 µM) | 2 (≈ 5.93 µM) | 2 (≈ 5.93 µM) | 2 (≈ 5.93 µM) | 2 (≈ 5.93 µM) | 2 (≈ 5.93 µM) | CC(=O)NC[C@H]1CN(c2ccc(N3CCOCC3)c(F)c2)C(=O)O1 [Linezolid, (S)—N-[[3-[3-Fluoro-4-(4-morpholinyl)phenyl]-2-oxo-5-oxazolidinyl]methyl]-acetamide, reference compound] | poor activity |  | 7.8 |  | MIC90 [14]: 2 µg/mL (≈ 5.93 µM); MIC90 [15]: 2 µg/mL (≈ 5.93 µM); administered dose found in the urine as the parent compound [17]: Approximately 35%; dose accounted for as the two metabolites (M4, M6) [17]: 50%; tolerability ([18]; 725 mg three times a day, increase in serum creatinine): could not be tolerated; myelosuppression ([18]; patients receiving linezolid, reversible): Myelosuppression has been reported; efficacy in treatment of infections [19]: effective; Tmax (in vivo [20]): 0.83 ± 1.01 h; Cyp substrate, inhibitor or inducer [21]: not a substrate, inhibitor, or inducer
